{"source": "patent US20150374646A1", "about": "“TREATMENT OF CANCER AND OTHER CONDITIONS USING A TRANSCRIPTION FACTOR MODULATOR” (C & C BIOPHARMA, LLC, priority 2013, published 2015)", "key": {"SEM cells": {"tested_on": "SEM cells", "assay": "Leukemia cell growth inhibition, CellTiter-Glo (Example 1)", "type": "cell-based", "conditions": "Homo sapiens, ALL (B-cell), 72 hours", "description": "(§1) Various human leukemia cells were grown to the logarithmic growth phase and seeded into 24-well plates. […] Treated cells were further incubated for 72 hours and then were examined for cell proliferation. Cell proliferation was determined using the CellTiter-Glo Luminescence Cell Viability assay (Promega Corporation, Madison, Wis.) according to the manufacturer's protocol. The calculated inhibition rate was determined with the following formula: Inhibition rate (%)=(1−Luminescence of experimental group/Luminescence of control group)×100. IC50 is the calculated concentration of a compound needed to inhibit half of the maximum cell growth (equivalent to cell growth in control group) based on the corresponding dose-response curve under the described experimental conditions."}, "BaF3 BCR-ABL": {"tested_on": "BaF3 BCR-ABL", "assay": "Leukemia cell growth inhibition, CellTiter-Glo (Example 1)", "type": "cell-based", "conditions": "Mouse cell line with BCR-ABL, 72 hours", "description": "as §1"}, "U266": {"tested_on": "U266", "assay": "Leukemia cell growth inhibition, CellTiter-Glo (Example 1)", "type": "cell-based", "conditions": "Homo sapiens, U-266; U266, Multiple myeloma; 72 hours", "description": "as §1"}, "Nalm-6": {"tested_on": "Nalm-6", "assay": "Leukemia cell growth inhibition, CellTiter-Glo (Example 1)", "type": "cell-based, human", "description": "as §1"}, "Nalm-6 cells": {"tested_on": "Nalm-6 cells", "assay": "Survival of BALB/c nude mice with Nalm-6 acute B cell lymphoblastic leukemia (Example 2)", "type": "in vivo", "experimental": "BALB/c nu/nu nude mice were 4 to 5 weeks old with an average weight of 22.4±1.03 grams. The mice were raised under specific pathogen-free (SPF) conditions and had access to food and water freely. Cyclophosphamide at about 130 mg/kg per day was administrated with intraperitoneal (IP) injection for 2 days. Twenty-four hours later, a suspension of 3.5×10^6 or 5×10^6 Nalm-6 cells (0.2 mL) were injected through tail vein of each BALB/c nude mouse. Five days later, the mice were randomly divided into a YT30 treated group (n=5) and a solvent control group (n=5).\nMice in the YT30 treated group were intraperitoneally injected with 200 μL of YT30 (50 mg/kg) once a day, for 5 days a week, and for 3 or 4 weeks. The mice in the solvent control group were intraperitoneally injected with the same volume of solvent (20% DMSO, 80% of 20% w/v (2-hydroxypropyl)-β-cyclodextrin in PBS), and were on the same treatment schedule as the YT30 treated group. The body weights of the mice were recorded prior to the start of the treatment and at least twice a week thereafter. The dosages were adjusted according to the body weight to conform to the 50 mg/kg/day treatment plan. Each mouse of every group was also monitored daily for any other symptoms of side effects including change in behavior, activity or posture, areas of redness and swelling, and food and water withdrawal. […] Dates of death were recorded."}, "K562R": {"tested_on": "K562R", "assay": "Leukemia cell growth inhibition, CellTiter-Glo (Example 1)", "type": "cell-based", "conditions": "Homo sapiens, K-562R, CML (Gleevec resistant), 72 hours", "description": "as §1"}, "RPMI-8226": {"tested_on": "RPMI-8226", "assay": "Leukemia cell growth inhibition, CellTiter-Glo (Example 1)", "type": "cell-based", "conditions": "Homo sapiens; RPMI-8226, Multiple myeloma; 72 hours", "description": "as §1"}, "HL60": {"tested_on": "HL60", "assay": "Leukemia cell growth inhibition, CellTiter-Glo (Example 1)", "type": "cell-based, human", "description": "as §1"}, "MV4-11 cells": {"tested_on": "MV4-11 cells", "assay": "Subcutaneous MV4-11 leukemia tumor growth in NOD/SCID mice (Example 5)", "type": "in vivo", "experimental": "Female Nonobese Diabetic/Severe Combined Immunodeficiency (NOD/SCID) mice that were 4-6 weeks old were used in the experiment. The mice were fed under specific pathogen free (SPF) conditions. Food and water were available to the mice at will. A suspension of 1×10^7 cells per mouse B-myelomonocytic leukemia MV4-11 cells (0.2 mL) in logarithmic phase were inoculated subcutaneously into the right back of the NOD/SCID nude mice.\nThe general conditions of the mice and the growth of the transplanted tumor were monitored. […] The control group received an intraperitoneal (IP) injection of 0.2 mL of solvent (20% DMSO, 80% of 20% w/v (2-hydroxypropyl)-β-cyclodextrin made in PBS). […] The high dosage group received an intraperitoneal injection of 50 mg/kg/day of YT30 (0.2 mL in volume) suspended in solvent (20% DMSO, 80% of 20% w/v (2-hydroxypropyl)-β-cyclodextrin made in PBS), while the low dosage group received IP injection of 25 mg/kg/day YT30 (0.2 mL in volume). Frequency of the administration was once per day and the experiment lasted 27 days after treatment started.\nThe body weights of the mice were recorded prior to the start of treatment and twice every week thereafter. Each mouse of every group was monitored daily for any other symptoms of side effects including change in behavior, activity or posture, areas of redness and swelling, and food and water withdrawal. Caliper measurements of the longest perpendicular tumor diameters were performed every 2 days to estimate the tumor volume; the following formula: 4π/3×(width/2)^2×(length/2) was used to calculate the three-dimensional volume of an ellipse. The tumor inhibition rate was calculated according to tumor volume: Tumor inhibition rate by size (%)=(Tumor volume of the control group−Tumor volume of the treated group)/Tumor volume of the control group×100. The mice were euthanized on the next day after the final injection and the subcutaneous tumor nodules were taken out intact and weighed. The tumor inhibition rate was calculated again according to tumor weight: Tumor inhibition rate by weight (%)=(Tumor weight of the control group−Tumor weight of the treated group)/Tumor weight of the control group×100)."}, "MV4-11": {"tested_on": "MV4-11", "assay": "Leukemia cell growth inhibition, CellTiter-Glo (Example 1)", "type": "cell-based", "conditions": "Homo sapiens; MV4-11, B-myelomonocytic (Biphenotypic B-cell leukemia); 72 hours", "description": "as §1"}}, "data": [{"smiles": "Nc1ccccc1NC(=O)CCCCCC(=O)Nc1cccc(Br)c1", "note": "[YT30]", "values": [{"measurement": "IC50", "setting": "SEM cells", "value": 1150, "unit": "nM"}, {"measurement": "IC50", "setting": "BaF3 BCR-ABL", "value": 3400, "unit": "nM"}, {"measurement": "IC50", "setting": "U266", "value": 8290, "unit": "nM"}, {"measurement": "IC50", "setting": "Nalm-6; Homo sapiens, NALM-6, ALL (B-cell), 72 hours", "value": 2360, "unit": "nM"}, {"measurement": "Growth inhibition (FIG. 1)", "setting": "Nalm-6; Nalm-6 cells, 4 μM", "value": "significantly inhibit cell growth"}, {"measurement": "Average life span after inoculation for IP 50 mg/KG group", "setting": "Nalm-6 cells; IP 50 mg/kg qd for 5 days/week, 3 weeks, 5 × 10^6 Nalm-6 cells, 50 mg/kg", "value": "48.8 ± 9.7", "unit": "days"}, {"measurement": "Mice that appeared to be cured", "setting": "Nalm-6 cells; IP 50 mg/kg, 4 weeks, 3.5 × 10^6 Nalm-6 cells, euthanized 341 days after treatment start", "value": "three out of five"}, {"measurement": "IC50", "setting": "K562R", "value": 3210, "unit": "nM"}, {"measurement": "IC50", "setting": "RPMI-8226", "value": 2000, "unit": "nM"}, {"measurement": "Growth inhibition (FIG. 1)", "setting": "HL60; HL60 cells, 4 μM", "value": "significantly inhibit cell growth"}, {"measurement": "IC50", "setting": "HL60; Homo sapiens, HL-60, HL60, AML (subtype APL), 72 hours", "value": 1040, "unit": "nM"}, {"measurement": "Average body weight (g, x ± s) End point", "setting": "MV4-11 cells; 25 mg/kg I.P. × 27 days", "value": "21.33 ± 1.26", "unit": "g"}, {"measurement": "Average body weight (g, x ± s) Initial", "setting": "MV4-11 cells; 25 mg/kg I.P. × 27 days", "value": "21.61 ± 1.18", "unit": "g"}, {"measurement": "Body weight change (%)", "setting": "MV4-11 cells; 25 mg/kg I.P. × 27 days", "value": "−1.0", "unit": "%"}, {"measurement": "Tumor growth Inhibition by weight (%)", "setting": "MV4-11 cells; 25 mg/kg I.P. × 27 days", "value": 38.8, "unit": "%"}, {"measurement": "Tumor size (mm^3)", "setting": "MV4-11 cells; 25 mg/kg I.P. × 27 days", "value": "1072.31 ± 296.29", "unit": "mm^3"}, {"measurement": "Tumor weight (g, x ± s)", "setting": "MV4-11 cells; 25 mg/kg I.P. × 27 days", "value": "1.35 ± 0.47", "unit": "g"}, {"measurement": "Tumor growth Inhibition by size (%)", "setting": "MV4-11 cells; 25 mg/kg I.P. × 27 days (low dosage)", "value": 51.0, "unit": "%"}, {"measurement": "Average body weight (g, x ± s) End point", "setting": "MV4-11 cells; 50 mg/kg I.P. × 27 days", "value": "18.86 ± 1.38", "unit": "g"}, {"measurement": "Average body weight (g, x ± s) Initial", "setting": "MV4-11 cells; 50 mg/kg I.P. × 27 days", "value": "21.02 ± 0.97", "unit": "g"}, {"measurement": "Body weight change (%)", "setting": "MV4-11 cells; 50 mg/kg I.P. × 27 days", "value": "−6.8", "unit": "%"}, {"measurement": "Tumor growth Inhibition by weight (%)", "setting": "MV4-11 cells; 50 mg/kg I.P. × 27 days", "value": 58.8, "unit": "%"}, {"measurement": "Tumor size (mm^3)", "setting": "MV4-11 cells; 50 mg/kg I.P. × 27 days", "value": "774.63 ± 269.10", "unit": "mm^3"}, {"measurement": "Tumor weight (g, x ± s)", "setting": "MV4-11 cells; 50 mg/kg I.P. × 27 days", "value": "0.91 ± 0.27", "unit": "g"}, {"measurement": "Tumor growth Inhibition by size (%)", "setting": "MV4-11 cells; 50 mg/kg I.P. × 27 days (high dosage)", "value": 64.6, "unit": "%"}, {"measurement": "IC50", "setting": "MV4-11", "value": 4060, "unit": "nM"}]}]}
